Experimental data: patent US20090048310A1, “AGENT FOR PREVENTION/TREATMENT OF DISEASE CAUSED BY ACYCLOVIR-RESISTANT HERPESVIRUS” (ASTELLAS PHARMA INC., priority 2005, published 2009)

Key:
HSV-1 strain WT-51 = assay: Cutaneous HSV-1 infection mouse model; format: in vivo, HR-1 hairless mouse; details: oral, 10 mg/kg twice a day for 5 days, scores for 17 days
Method: Using a cutaneous HSV-1 infection mouse model prepared in reference to the method of H. Machida et al. (Antiviral Res., 1992, 17, 133-143), the in vivo […] of the compounds of the present invention was tested using an animal model. The skin of each HR-1 hairless mouse [female, 7 weeks of age] was scratched lengthwise and breadthwise several times using a needle and a virus suspension (HSV-1 strain WT-51, 1.5×10^4 PFU/15 μl) was dropped to the scarified region for infection, while anesthetized with diethyl ether.
Tested compounds were administered orally as a methyl cellulose suspension, except for compounds marked with asterisk which were dissolved in 20% Cremophor EL (Nacalai Tesque)/20% polyethylene glycol (PEG) 400/60% H2O solution, starting at 3 hours after the infection, and then at a dose of 10 mg/kg twice a day for 5 days. The symptom of the skin lesion caused by HSV-1 infection were classified in the following scores for 17 days:
Score 0: no signs of infection.
Score 1: localized, barely perceptible small vesicles.
Score 2: slight vesicle spread.
Score 3: large patches of vesicles formed.
Score 4: zosteriform vesicles.
Score 5: large patches of ulcers formed.
Score 6: zosteriform with severe large ulcers.
Score 7: hind limb paralysis or death.
The AUC value was calculated from each group's mean disease score, and the disease inhibitory rate of the group administered with each test compound to the placebo group was calculated using the AUC.

ACV-resistant HSV-1 = ACV-resistant HSV-1 infection lethal model in nude mice; format: in vivo, nude mouse (CD-1(ICR)-nu/nu); details: 100 mg/kg oral twice a day for 15 days
Method: ACV-resistant HSV-1 (3×10^6 pfu) was inoculated into the peritoneal cavity of each nude mouse (CD-1(ICR)-nu/nu, […], female, Charles River Japan) to cause infection with the virus. Each compound to be tested was made into a methyl cellulose suspension and orally administered at a dose of 100 mg/kg, twice a day for 15 days starting 1 hour after the infection (from 0 to 14 days after the infection).
During 17 days after the infection, death of the mice caused by ACV-resistant HSV-1 infection was observed every day, and the number of survived animals was counted.

[1] = dissolved in 20% Cremophor EL/20% PEG 400/60% H2O (asterisk)

COc1ccc(N(CC(=O)Nc2ccc(-c3csc(N)n3)cc2)C(=O)C2CCS(=O)(=O)CC2)cc1 [Comparative compound B, reference compound]
Inhibition ratio (%) (disease inhibitory rate vs placebo from AUC of mean disease score) (HSV-1 strain WT-51; methyl cellulose suspension): 2%

Nc1nc(-c2ccc(NC(=O)CN(C(=O)C3CCS(=O)(=O)CC3)c3ccc4c(c3)CCC4)cc2)cs1 [Comparative compound D, reference compound]
Inhibition ratio (%) (disease inhibitory rate vs placebo from AUC of mean disease score) (HSV-1 strain WT-51; methyl cellulose suspension): 43%

Cc1ccc(N(CC(=O)Nc2ccc(-c3ncon3)cc2)C(=O)C2CCS(=O)(=O)CC2)cc1F [Preparation 35, N-(3-fluoro-4-methylphenyl)-N-(2-{[4-(1,2,4-oxadiazol-3-yl)phenyl]amino}-2-oxoethyl)tetrahydro-2H-thiopyran-4-carboxamide 1,1-dioxide]
Inhibition ratio (%) (disease inhibitory rate vs placebo from AUC of mean disease score) (HSV-1 strain WT-51; methyl cellulose suspension): 82%

Cc1ccc(N(CC(=O)Nc2ccc(-c3cocn3)cc2)C(=O)C2CCS(=O)(=O)CC2)c(C)c1 [Preparation 6, N-(2,4-dimethylphenyl)-N-(2-{[4-(1,3-oxazol-4-yl)phenyl]amino}-2-oxoethyl)tetrahydro-2H-thiopyran-4-carboxamide 1,1-dioxide]
Inhibition ratio (%) (disease inhibitory rate vs placebo from AUC of mean disease score) (HSV-1 strain WT-51; methyl cellulose suspension): 92%

COc1ccc(N(CC(=O)Nc2ccc(-c3csc(N)n3)cc2)C(=O)C2CCC(O)CC2)cc1 (centres unmarked) [Comparative compound C, reference compound]
Inhibition ratio (%) (disease inhibitory rate vs placebo from AUC of mean disease score) (HSV-1 strain WT-51; methyl cellulose suspension): 44%

O=C(CN(C(=O)C1CCS(=O)(=O)CC1)c1ccc2c(c1)CCC2)Nc1ccc(-c2ncon2)cc1 [Preparation 33, N-(2,3-dihydro-1H-inden-5-yl)-N-(2-{[4-(1,2,4-oxadiazol-3-yl)phenyl]amino}-2-oxoethyl)tetrahydro-2H-thiopyran-4-carboxamide 1,1-dioxide]
Inhibition ratio (%) (disease inhibitory rate vs placebo from AUC of mean disease score) (HSV-1 strain WT-51; methyl cellulose suspension): 79%

Nc1nc(-c2ccc(NC(=O)CN(C(=O)c3ccc(F)cc3)c3ccc4ncsc4c3)cc2)cs1 [Comparative compound A, reference compound]
Inhibition ratio (%) (disease inhibitory rate vs placebo from AUC of mean disease score) (HSV-1 strain WT-51; methyl cellulose suspension): 38%

Cc1c(F)cc(N(CC(=O)Nc2ccc(-c3cocn3)cc2)C(=O)C2CCS(=O)(=O)CC2)cc1F [Preparation 19, N-(3,5-difluoro-4-methylphenyl)-N-(2-{[4-(1,3-oxazol-4-yl)phenyl]amino}-2-oxoethyl)tetrahydro-2H-thiopyran-4-carboxamide 1,1-dioxide]
Inhibition ratio (%) (disease inhibitory rate vs placebo from AUC of mean disease score) (HSV-1 strain WT-51; methyl cellulose suspension): 71%

Cc1ccc(N(CC(=O)Nc2ccc(-c3cocn3)cc2)C(=O)C2CCS(=O)(=O)CC2)cc1C [Preparation 8, N-(3,4-dimethylphenyl)-N-(2-{[4-(1,3-oxazol-4-yl)phenyl]amino}-2-oxoethyl)tetrahydro-2H-thiopyran-4-carboxamide 1,1-dioxide]
Inhibition ratio (%) (disease inhibitory rate vs placebo from AUC of mean disease score) (HSV-1 strain WT-51; methyl cellulose suspension): 91%

Cc1cc(F)cc(C)c1N(CC(=O)Nc1ccc(-c2ncon2)cc1)C(=O)C1CCS(=O)(=O)CC1 [Preparation 31, N-(4-fluoro-2,6-dimethylphenyl)-N-(2-{[4-(1,2,4-oxadiazol-3-yl)phenyl]amino}-2-oxoethyl)tetrahydro-2H-thiopyran-4-carboxamide 1,1-dioxide]
Inhibition ratio (%) (disease inhibitory rate vs placebo from AUC of mean disease score) (HSV-1 strain WT-51; [1]): * 86%

Cc1cccc(N(CC(=O)Nc2ccc(-c3ncon3)cc2)C(=O)C2CCS(=O)(=O)CC2)c1C [Preparation 24, N-(2,3-dimethylphenyl)-N-(2-{[4-(1,2,4-oxadiazol-3-yl)phenyl]amino}-2-oxoethyl)tetrahydro-2H-thiopyran-4-carboxamide 1,1-dioxide]
Inhibition ratio (%) (disease inhibitory rate vs placebo from AUC of mean disease score) (HSV-1 strain WT-51; methyl cellulose suspension): 89%

CC(C)[C@H](N)C(=O)OCCOCn1cnc2c(=O)nc(N)[nH]c21 [VCV, valcyclovir, reference compound]
death suppressing effect (in words) (ACV-resistant HSV-1; 17 days after infection): clear death suppressing effect was not found
The number of survived animals (n = 10) (ACV-resistant HSV-1; day 0 after infection): 10
The number of survived animals (n = 10) (ACV-resistant HSV-1; day 1 after infection): 10
The number of survived animals (n = 10) (ACV-resistant HSV-1; day 2 after infection): 10
The number of survived animals (n = 10) (ACV-resistant HSV-1; day 4 after infection): 10
The number of survived animals (n = 10) (ACV-resistant HSV-1; day 5 after infection): 10
The number of survived animals (n = 10) (ACV-resistant HSV-1; day 6 after infection): 10
The number of survived animals (n = 10) (ACV-resistant HSV-1; day 7 after infection): 9
The number of survived animals (n = 10) (ACV-resistant HSV-1; day 8 after infection): 8
The number of survived animals (n = 10) (ACV-resistant HSV-1; day 9 after infection): 4
The number of survived animals (n = 10) (ACV-resistant HSV-1; day 10 after infection): 2
The number of survived animals (n = 10) (ACV-resistant HSV-1; day 11 after infection): 2
The number of survived animals (n = 10) (ACV-resistant HSV-1; day 12 after infection): 2
The number of survived animals (n = 10) (ACV-resistant HSV-1; day 14 after infection): 2
The number of survived animals (n = 10) (ACV-resistant HSV-1; day 16 after infection): 2
The number of survived animals (n = 10) (ACV-resistant HSV-1; day 17 after infection): 2

Cc1ccc(N(CC(=O)Nc2ccc(-c3cocn3)cc2)C(=O)C2CCS(=O)(=O)CC2)c(C)c1F [Preparation 17, N-(3-fluoro-2,4-dimethylphenyl)-N-(2-{[4-(1,3-oxazol-4-yl)phenyl]amino}-2-oxoethyl)tetrahydro-2H-thiopyran-4-carboxamide 1,1-dioxide]
Inhibition ratio (%) (disease inhibitory rate vs placebo from AUC of mean disease score) (HSV-1 strain WT-51; methyl cellulose suspension): 94%

O=C(CN(C(=O)C1CCS(=O)(=O)CC1)c1ccc2c(c1)CCC2)Nc1ccc(-c2cocn2)cc1 [Preparation 11, N-(2,3-dihydro-1H-inden-5-yl)-N-(2-{[4-(1,3-oxazol-4-yl)phenyl]amino}-2-oxoethyl)tetrahydro-2H-thiopyran-4-carboxamide 1,1-dioxide]
Inhibition ratio (%) (disease inhibitory rate vs placebo from AUC of mean disease score) (HSV-1 strain WT-51; methyl cellulose suspension): 92%

Cc1ccccc1N(CC(=O)Nc1ccc(-c2cocn2)cc1)C(=O)C1CCS(=O)(=O)CC1 [Preparation 4, N-(2-methylphenyl)-N-(2-{[4-(1,3-oxazol-4-yl)phenyl]amino}-2-oxoethyl)tetrahydro-2H-thiopyran-4-carboxamide 1,1-dioxide]
Inhibition ratio (%) (disease inhibitory rate vs placebo from AUC of mean disease score) (HSV-1 strain WT-51; methyl cellulose suspension): 77%

Cc1cc(N(CC(=O)Nc2ccc(-c3cocn3)cc2)C(=O)C2CCS(=O)(=O)CC2)ccc1Cl [Preparation 13, N-(4-chloro-3-methylphenyl)-N-(2-{[4-(1,3-oxazol-4-yl)phenyl]amino}-2-oxoethyl)tetrahydro-2H-thiopyran-4-carboxamide 1,1-dioxide]
Inhibition ratio (%) (disease inhibitory rate vs placebo from AUC of mean disease score) (HSV-1 strain WT-51; methyl cellulose suspension): 89%

Cc1ccc(N(CC(=O)Nc2ccc(-c3cocn3)cc2)C(=O)C2CCS(=O)(=O)CC2)cc1F [Preparation 14, N-(3-fluoro-4-methylphenyl)-N-(2-{[4-(1,3-oxazol-4-yl)phenyl]amino}-2-oxoethyl)tetrahydro-2H-thiopyran-4-carboxamide 1,1-dioxide]
Inhibition ratio (%) (disease inhibitory rate vs placebo from AUC of mean disease score) (HSV-1 strain WT-51; methyl cellulose suspension): 98%

Cc1ccc(N(CC(=O)Nc2ccc(-c3ncon3)cc2)C(=O)C2CCS(=O)(=O)CC2)c(C)c1F [Preparation 39, N-(3-fluoro-2,4-dimethylphenyl)-N-(2-{[4-(1,2,4-oxadiazol-3-yl)phenyl]amino}-2-oxoethyl)tetrahydro-2H-thiopyran-4-carboxamide 1,1-dioxide]
Inhibition ratio (%) (disease inhibitory rate vs placebo from AUC of mean disease score) (HSV-1 strain WT-51; methyl cellulose suspension): 80%

Cc1cc(N(CC(=O)Nc2ccc(-c3ncon3)cc2)C(=O)C2CCS(=O)(=O)CC2)ccc1Cl [Preparation 37, N-(4-chloro-3-methylphenyl)-N-(2-{[4-(1,2,4-oxadiazol-3-yl)phenyl]amino}-2-oxoethyl)tetrahydro-2H-thiopyran-4-carboxamide 1,1-dioxide]
Inhibition ratio (%) (disease inhibitory rate vs placebo from AUC of mean disease score) (HSV-1 strain WT-51; methyl cellulose suspension): 100%

Cc1ccc(N(CC(=O)Nc2ccc(-c3ncon3)cc2)C(=O)C2CCS(=O)(=O)CC2)c(C)c1 [Preparation 25, N-(2,4-dimethylphenyl)-N-(2-{[4-(1,2,4-oxadiazol-3-yl)phenyl]amino}-2-oxoethyl)tetrahydro-2H-thiopyran-4-carboxamide 1,1-dioxide]
Inhibition ratio (%) (disease inhibitory rate vs placebo from AUC of mean disease score) (HSV-1 strain WT-51; [1]): * 70%
